According to publication PMC4484790 (Virology, 2014):
One block for each compound: values may come before it.

Tests used:
[1] = PK of orally administered TFV; type: in vivo
HIV [2] = settings: Partners PrEP study; oral; serodiscordant couples; ref Baeten et al., 2012; cited from earlier work
in vivo = experiment: in vivo; design: species or system non-humanized mice; settings: female, mouse, po, 61.5 mg/kg
HIV [3] = settings: hu-mice; oral administration at allometric dosing levels; ref Neff et al., 2010; cited from earlier work
[4] = female, BALB/c Rag1−/− or Rag2−/−γc−/− (humanized, Hu-HSC RAG-hu), mouse, intestinal tissue, po, 61.5 mg/kg
[5] = female, BALB/c Rag1−/− or Rag2−/−γc−/− (humanized, Hu-HSC RAG-hu), mouse, plasma, po, 61.5 mg/kg
[6] = female, BALB/c Rag1−/− or Rag2−/−γc−/− (humanized, Hu-HSC RAG-hu), mouse, rectal tissue, po, 61.5 mg/kg
[7] = female, BALB/c Rag1−/− or Rag2−/−γc−/− (humanized, Hu-HSC RAG-hu), mouse, vaginal tissue, po, 61.5 mg/kg

AUC24h intestinal:rectal tissue ratio ([1]; hu-mice, TFV oral 61.5 mg/kg x 5 days): 2.45
Compound: CC(Cn1cnc2c(N)ncnc21)OCP(=O)(O)OP(=O)(O)OP(=O)(O)O (stereo in doubt) [TFV-DP, Tenofovir Diphosphate]

AUC(0-t) ([1]; female, BALB/c Rag1−/− or Rag2−/−γc−/− (humanized, Hu-HSC RAG-hu), mouse, in vivo, po, 61.5 mg/kg): 11.3 µg·h/mL | Cmax ([1]; female, BALB/c Rag1−/− or Rag2−/−γc−/− (humanized, Hu-HSC RAG-hu), mouse, in vivo, po, 61.5 mg/kg, Cmax (median)): 1.99 µg/mL | Tmax [1, 4]: 2 h | half-life [1, 4]: 13.9 h | Tmax [1, 5]: 2 h | half-life [1, 5]: 17 h | Tmax [1, 6]: 2 h | half-life [1, 6]: 13.5 h | Tmax [1, 7]: 2 h | half-life [1, 7]: 9 h | AUC(0-t) (in vivo): 17.3 µg·h/mL | Tmax (in vivo): 8 h | Cmax (in vivo; Cmax (median)): 1.55 µg/mL
Compound: C[C@H](Cn1cnc2c(N)ncnc21)OCP(=O)(O)O [TFV, Tenofovir]
reduction in HIV-1 incidence (HIV [2]): 67%

Compound: Maraviroc [MVC]
protection against HIV vaginal challenge (HIV [3]): fully protective
